The values below come from patent US8486918B2, “Phenyl oxadiazole derivatives as sphingosine 1-phosphate (S1P) receptor” (Allergan, Inc., priority 2010, dated 2013).

Molecules are shown by their SMILES.

The assay deals with T1, human S1P1 receptor (Homo sapiens, UniProt P21453).
T1 construct: expressed in transfected cells; membranes used
T1 sequence (P21453 whole entry): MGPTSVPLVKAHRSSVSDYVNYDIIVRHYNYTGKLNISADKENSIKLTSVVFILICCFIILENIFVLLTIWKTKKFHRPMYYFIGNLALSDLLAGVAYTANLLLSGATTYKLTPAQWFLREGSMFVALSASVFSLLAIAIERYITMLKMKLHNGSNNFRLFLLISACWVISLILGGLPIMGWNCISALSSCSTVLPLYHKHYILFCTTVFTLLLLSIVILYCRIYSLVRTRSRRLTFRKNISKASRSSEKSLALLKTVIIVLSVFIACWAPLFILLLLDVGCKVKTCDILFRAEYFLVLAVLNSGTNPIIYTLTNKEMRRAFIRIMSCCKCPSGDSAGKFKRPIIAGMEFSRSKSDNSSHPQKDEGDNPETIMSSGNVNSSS
Kind of assay: GTP γ35S binding assay for S1P1 activity. Type of assay: biochemical. Particulars: membranes of cells stably expressing the S1P1 receptor, test concentrations 0.08 to 5,000 nM. As for the experimental part:
Compounds were synthesized and tested for S1P1 activity using the GTP γ^35S binding assay. These compounds may be assessed for their ability to activate or block activation of the human S1P1 receptor in cells stably expressing the S1P1 receptor.
GTP γ^35S binding was measured in the medium containing (mM) HEPES 25, pH 7.4, MgCl2 10, NaCl 100, dithitothreitol 0.5, digitonin 0.003%, 0.2 nM GTP γ^35S, and 5 μg membrane protein in a volume of 150 μl. Test compounds were included in the concentration range from 0.08 to 5,000 nM unless indicated otherwise. Membranes were incubated with 100 μM 5′-adenylylimmidodiphosphate for 30 min, and subsequently with 10 μM GDP for 10 min on ice. Drug solutions and membrane were mixed, and then reactions were initiated by adding GTP γ^35S and continued for 30 min at 25° C. Reaction mixtures were filtered over Whatman GF/B filters under vacuum, and washed three times with 3 mL of ice-cold buffer (HEPES 25, pH7.4, MgCl2 10 and NaCl 100). Filters were dried and mixed with scintillant, and counted for ^35S activity using a β-counter. Agonist-induced GTP γ^35S binding was obtained by subtracting that in the absence of agonist. Binding data were analyzed using a non-linear regression method. In case of antagonist assay, the reaction mixture contained 10 nM S1P in the presence of test antagonist at concentrations ranging from 0.08 to 5000 nM.
(In general: GTPγS resists hydrolysis and so accumulates on activated G proteins.)
The compound `CCc1ccc(OC(c2cccc(Cl)c2)c2nc(-c3ccc(CNCCC(=O)O)cc3)no2)cc1` (centres unmarked) [Compound 7, 3-[(4-{5-[(3-chlorophenyl)(4-ethylphenoxy)methyl]-1,2,4-oxadiazol-3-yI}benzyl)amino]propanoic acid] displayed an EC50 of 1080 nM. On to `Cc1ccc(OC(c2cccc(Cl)c2)c2nc(-c3ccc(CNCCC(=O)O)cc3)no2)cc1` (centres unmarked) [Compound 8, 3-[(4-{5-[(3-chlorophenyl)(4-methylphenoxy)methyl]-1,2,4-oxadiazol-3-yl}benzyl)amino]propanoic acid], for which a half-maximal effect (EC50) was put at 420 nM. `Cc1ccc(SC(c2nc(-c3ccc(CNCCC(=O)O)cc3)no2)c2ccccc2Cl)cc1C` (centres unmarked) [Compound 5, 3-{[4-(5-{(2-chlorophenyl)[(3,4-dimethylphenyl)thio]methyl}-1,2,4-oxadiazol-3-yI)benzyl]amino}propanoic acid]: the EC50 turned out to be 146 nM. The figure for `COc1ccc(OC(c2nc(-c3ccc(CNCCC(=O)O)cc3)no2)c2ccccc2Cl)cc1C` (centres unmarked) [Compound 10, 3-[(4-{5-[(2-chlorophenyl)(4-methoxy-3-methylphenoxy)methyl]-1,2,4-oxadiazol-3-yl}benzyl)amino]propanoic acid] is 209 nM. As to `CCCc1ccc(OC(c2cccc(Cl)c2)c2nc(-c3ccc(CNCCC(=O)O)cc3)no2)cc1` (centres unmarked) [Compound 6, 3-[(4-{5-[(3-chlorophenyl)(4-propylphenoxy)methyl]-1,2,4-oxadiazol-3-yI}benzyl)amino]propanoic acid], the response was half-maximal at 1600 nM (EC50).

`Cc1ccc(SC(c2cccc(Cl)c2)c2nc(-c3cc(C)c(OCC(O)CO)c(C)c3)no2)cc1C` (centres unmarked) [Compound 11, 3-[4-(5-{(3-chlorophenyl)[(3,4-dimethylphenyl)thio]methyl}-1,2,4-oxadiazol-3-yl)-2,6-dimethylphenoxy]propane-1,2-diol] registered an EC50 of 29.9 nM.

The compound `CCCc1cccc(OC(c2cccc(Cl)c2)c2nc(-c3ccc(CNCCC(=O)O)cc3)no2)c1` (centres unmarked) [3-[(4-{5-[(3-chlorophenyl)(3-propylphenoxy)methyl]-1,2,4-oxadiazol-3-yl}benzyl)amino]propanoic acid] yielded an EC50 of 2100 nM. The figure for `O=C(O)CCNCc1ccc(-c2noc(C(Oc3cccc(Cl)c3)c3ccccc3Cl)n2)cc1` (centres unmarked) [Compound 2, 3-[(4-{5-[(3-chlorophenoxy)(2-chlorophenyl)methyl]-1,2,4-oxadiazol-3-yl}benzyl)amino]propanoic acid] is 2120 nM.

Broadly, the EC50 is the midpoint of the concentration-response curve. A lower EC50 goes with a more potent agent.
